# Literature values as cited in patent publication US11931454B2, “Wet-packed soft hydrogel ocular inserts” (Alcon Inc., priority 2019, dated 2024).
# Settings: arylboronic acid group of the monomer
row,Compound,pKa
1,3-(meth)acrylamidophenylboronic acid,~8.2
2,"4-(1,6-Dioxo-2,5-diaza-7-oxamyl)phenylboronic acid",~7.8
3,C=Cc1ccc(CN(C)C)c(B(O)O)c1 [2-Dimethylaminomethyl-5-vinylphenylboronic acid],< 7.8
4,C=CCCS(=O)(=O)c1ccc(B(O)O)cc1 [4-(3-Butenylsulfonyl)phenylboronic acid],~7.1
5,C=CCNS(=O)(=O)c1ccc(B(O)O)cc1 [4-(N-allylsulfamoyl)phenylboronic acid],~7.4
